target: USP7 (Homo sapiens, UniProt Q93009); assay: biochemical
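Further: fluorescence intensity readout of USP7 enzymatic activity, reaction incubated 90 min at room temperature.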

Chain of USP7 (Q93009 whole entry): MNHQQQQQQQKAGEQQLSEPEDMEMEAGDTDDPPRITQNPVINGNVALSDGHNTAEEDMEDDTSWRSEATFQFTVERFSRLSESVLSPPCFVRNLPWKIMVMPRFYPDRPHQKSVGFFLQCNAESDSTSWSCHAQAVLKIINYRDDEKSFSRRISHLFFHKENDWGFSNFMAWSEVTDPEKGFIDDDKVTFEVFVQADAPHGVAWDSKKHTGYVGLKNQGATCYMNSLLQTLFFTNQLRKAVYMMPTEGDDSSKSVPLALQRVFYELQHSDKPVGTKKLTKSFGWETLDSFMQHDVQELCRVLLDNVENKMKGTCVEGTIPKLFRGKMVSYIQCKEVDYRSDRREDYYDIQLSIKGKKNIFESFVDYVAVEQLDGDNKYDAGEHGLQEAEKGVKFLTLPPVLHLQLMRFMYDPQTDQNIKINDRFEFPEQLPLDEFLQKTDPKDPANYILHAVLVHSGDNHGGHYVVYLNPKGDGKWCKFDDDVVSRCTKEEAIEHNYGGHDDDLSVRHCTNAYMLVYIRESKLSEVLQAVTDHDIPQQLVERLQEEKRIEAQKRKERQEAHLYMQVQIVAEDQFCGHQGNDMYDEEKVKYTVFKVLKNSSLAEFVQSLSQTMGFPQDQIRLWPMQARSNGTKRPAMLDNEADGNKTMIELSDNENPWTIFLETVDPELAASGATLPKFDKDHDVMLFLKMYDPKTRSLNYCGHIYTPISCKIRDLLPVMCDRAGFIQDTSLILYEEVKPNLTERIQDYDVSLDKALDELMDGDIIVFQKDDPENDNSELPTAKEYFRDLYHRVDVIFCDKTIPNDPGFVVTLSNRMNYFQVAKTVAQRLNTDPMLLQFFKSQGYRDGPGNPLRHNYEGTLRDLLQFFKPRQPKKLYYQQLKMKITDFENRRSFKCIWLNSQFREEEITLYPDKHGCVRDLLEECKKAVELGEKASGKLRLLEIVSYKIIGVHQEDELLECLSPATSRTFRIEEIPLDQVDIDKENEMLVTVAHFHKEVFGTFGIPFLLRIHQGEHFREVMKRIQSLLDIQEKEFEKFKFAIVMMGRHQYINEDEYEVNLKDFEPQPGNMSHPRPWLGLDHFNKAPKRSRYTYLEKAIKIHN

IC50 [nM]	Compound
< 10	O=c1ccn(CC(F)(F)F)c(=O)n1Cc1cc2nccc(-c3cc(Cl)cc4c3N([C@H]3CCNC3)C[C@H]3C[C@@H]43)c2s1 [Example 114, 3-((7-((1aS,7bR)-6-chloro-3-((S)-pyrrolidin-3-yl)-1a,2,3,7b-tetrahydro-1H-cyclopropa[c]quinolin-4-yl)thieno[3,2-b]pyridin-2-yl)methyl)-1-(2,2,2-trifluoroethyl)pyrimidine-2,4(1H,3H)-dione]
101 to 1000	Cc1cc(-c2cc(Cl)cc3c2N([C@H]2CCNC2)CCC3)c2sc(CN3C(=O)CCC3=O)cc2n1 [Example 116, (S)-1-((7-(6-chloro-1-(pyrrolidin-3-yl)-1,2,3,4-tetrahydroquinolin-8-yl)-5-methylthieno[3,2-b]pyridin-2-yl)methyl)pyrrolidine-2,5-dione]
101 to 1000	N#Cc1cc(-c2ccnc3cc(Cn4c(=O)ccn(CC(F)F)c4=O)sc23)c2c(c1)[C@H]1C[C@H]1CN2[C@@H]1CCNC1 [Example 117a, (1aR,7bS)-4-(2-((3-(2,2-difluoroethyl)-2,6-dioxo-3,6-dihydropyrimidin-1(2H)-yl)methyl)thieno[3,2-b]pyridin-7-yl)-3-((R)-pyrrolidin-3-yl)-1a,2,3,7b-tetrahydro-1H-cyclopropa[c]quinoline-6-carbonitrile]
10 to 100	N#Cc1cc(-c2ccnc3cc(Cn4c(=O)ccn(CC(F)F)c4=O)sc23)c2c(c1)[C@@H]1C[C@@H]1CN2[C@@H]1CCNC1 [Example 117b, (1aS,7bR)-4-(2-((3-(2,2-difluoroethyl)-2,6-dioxo-2,3-dihydropyrimidin-1(6H)-yl)methyl)thieno[3,2-b]pyridin-7-yl)-3-((R)-pyrrolidin-3-yl)-1a,2,3,7b-tetrahydro-1H-cyclopropa[c]quinoline-6-carbonitrile]
10 to 100	N#Cc1cc(-c2ccnc3cc(Cn4c(=O)ccn(CC(F)F)c4=O)sc23)c2c(c1)[C@H]1C[C@H]1CN2[C@H]1CCNC1 [Example 117c, (1aR,7bS)-4-(2-((3-(2,2-difluoroethyl)-2,6-dioxo-3,6-dihydropyrimidin-1(2H)-yl)methyl)thieno[3,2-b]pyridin-7-yl)-3-((S)-pyrrolidin-3-yl)-1a,2,3,7b-tetrahydro-1H-cyclopropa[c]quinoline-6-carbonitrile]
< 10	N#Cc1cc(-c2ccnc3cc(Cn4c(=O)ccn(CC(F)F)c4=O)sc23)c2c(c1)[C@@H]1C[C@@H]1CN2[C@H]1CCNC1 [Example 117d, (1aS,7bR)-4-[2-[[3-(2,2-difluoroethyl)-2,6-dioxo-pyrimidin-1-yl]methyl]thieno[3,2-b]pyridin-7-yl]-3-[(3S)-pyrrolidin-3-yl]-1,1a,2,7b-tetrahydrocyclopropa[c]quinoline-6-carbonitrile]
< 10	CC1(C)C[C@H](N2CCCc3cc(Cl)cc(-c4ccnc5cc(CN6C(=O)CCC6=O)sc45)c32)CN1 [Example 119, (S)-1-((7-(6-chloro-1-(5,5-dimethylpyrrolidin-3-yl)-1,2,3,4-tetrahydroquinolin-8-yl)thieno[3,2-b]pyridin-2-yl)methyl)pyrrolidine-2,5-dione]
< 10	Cc1cnn(Cc2cc3nccc(-c4cc(C#N)cc5c4N([C@@H]4CN(C)C(C)(C)C4)CCC5)c3s2)c(=O)c1 [Example 122, (S)-8-(2-((4-methyl-6-oxopyridazin-1(6H)-yl)methyl)thieno[3,2-b]pyridin-7-yl)-1-(1,5,5-trimethylpyrrolidin-3-yl)-1,2,3,4-tetrahydroquinoline-6-carbonitrile]
< 10	CN1C[C@@H](N2CCCc3cc(C#N)cc(-c4ccnc5cc(Cn6c(=O)ccn(C)c6=O)sc45)c32)CC1(C)C [Example 123, (S)-8-(2-((3-methyl-2,6-dioxo-2,3-dihydropyrimidin-1(6H)-yl)methyl)thieno[3,2-b]pyridin-7-yl)-1-(1,5,5-trimethylpyrrolidin-3-yl)-1,2,3,4-tetrahydroquinoline-6-carbonitrile]
< 10	CC1(C)C[C@H](N2CCCc3cc(C#N)cc(-c4ccnc5cc(CN6C(=O)C7CC7C6=O)sc45)c32)CN1 (stereo partly drawn) [Example 124, 1-((S)-5,5-dimethylpyrrolidin-3-yl)-8-(2-((2,4-dioxo-3-azabicyclo[3.1.0]hexan-3-yl)methyl)thieno[3,2-b]pyridin-7-yl)-1,2,3,4-tetrahydroquinoline-6-carbonitrile]
< 10	CC1(C)C[C@H](N2CCCc3cc(C#N)cc(-c4ccnc5cc(Cn6c(=O)ccn(CC(F)(F)F)c6=O)sc45)c32)CN1 [Example 125, (S)-1-(5,5-dimethylpyrrolidin-3-yl)-8-(2-((2,6-dioxo-3-(2,2,2-trifluoroethyl)-2,3-dihydropyrimidin-1(6H)-yl)methyl)thieno[3,2-b]pyridin-7-yl)-1,2,3,4-tetrahydroquinoline-6-carbonitrile]
< 10	CCn1c(N(C)C)cc(=O)n(Cc2cc3nccc(-c4cc(C#N)cc5c4N([C@@H]4CNC(C)(C)C4)CCC5)c3s2)c1=O [Example 126, (S)-8-(2-((4-(dimethylamino)-3-ethyl-2,6-dioxo-2,3-dihydropyrimidin-1(6H)-yl)methyl)thieno[3,2-b]pyridin-7-yl)-1-(5,5-dimethylpyrrolidin-3-yl)-1,2,3,4-tetrahydroquinoline-6-carbonitrile]
< 10	CC1(C)C[C@H](N2CCCc3cc(C#N)cc(-c4ccnc5cc(CN6C(=O)CN(C7CC(F)(F)C7)C6=O)sc45)c32)CN1 [Example 127, (S)-8-(2-((3-(3,3-difluorocyclobutyl)-2,5-dioxoimidazolidin-1-yl)methyl)thieno[3,2-b]pyridin-7-yl)-1-(5,5-dimethylpyrrolidin-3-yl)-1,2,3,4-tetrahydroquinoline-6-carbonitrile]
< 10	CC1(C)C[C@H](N2CCCc3cc(C#N)cc(-c4ccnc5cc(Cn6ncc(C7CC7)cc6=O)sc45)c32)CN1 [Example 128, (S)-8-(2-((4-cyclopropyl-6-oxopyridazin-1(6H)-yl)methyl)thieno[3,2-b]pyridin-7-yl)-1-(5,5-dimethylpyrrolidin-3-yl)-1,2,3,4-tetrahydroquinoline-6-carbonitrile]
< 10	CC(C)c1cnn(Cc2cc3nccc(-c4cc(C#N)cc5c4N([C@@H]4CNC(C)(C)C4)CCC5)c3s2)c(=O)c1 [Example 129, (S)-1-(5,5-dimethylpyrrolidin-3-yl)-8-(2-((4-isopropyl-6-oxopyridazin-1(6H)-yl)methyl)thieno[3,2-b]pyridin-7-yl)-1,2,3,4-tetrahydroquinoline-6-carbonitrile]
< 10	CC1(C)C[C@H](N2CCCc3cc(C#N)cc(-c4ccnc5cc(CN6C(=O)CCCC6=O)sc45)c32)CN1 [Example 130, (S)-1-(5,5-dimethylpyrrolidin-3-yl)-8-(2-((2,6-dioxopiperidin-1-yl)methyl)thieno[3,2-b]pyridin-7-yl)-1,2,3,4-tetrahydroquinoline-6-carbonitrile]
< 10	CC1(C)C[C@H](N2CCCc3cc(C#N)cc(-c4ccnc5cc(CN6C(=O)CN(C7CC7)C6=O)sc45)c32)CN1 [Example 131, (S)-8-(2-((3-cyclopropyl-2,5-dioxoimidazolidin-1-yl)methyl)thieno[3,2-b]pyridin-7-yl)-1-(5,5-dimethylpyrrolidin-3-yl)-1,2,3,4-tetrahydroquinoline-6-carbonitrile]
< 10	Cc1cnn(Cc2cc3nccc(-c4cc(C#N)cc5c4N([C@@H]4CNC(C)(C)C4)CCO5)c3s2)c(=O)c1 [Example 134, (S)-4-(5,5-dimethylpyrrolidin-3-yl)-5-(2-((4-methyl-6-oxopyridazin-1(6H)-yl)methyl)thieno[3,2-b]pyridin-7-yl)-3,4-dihydro-2H-benzo[b][1,4]oxazine-7-carbonitrile]
< 10	CC1(C)C[C@H](N2CCOc3cc(C#N)cc(-c4ccnc5cc(Cn6ncc(C7CC7)cc6=O)sc45)c32)CN1 [Example 135, (S)-5-(2-((4-cyclopropyl-6-oxopyridazin-1(6H)-yl)methyl)thieno[3,2-b]pyridin-7-yl)-4-(5,5-dimethylpyrrolidin-3-yl)-3,4-dihydro-2H-benzo[b][1,4]oxazine-7-carbonitrile]
< 10	CC1(C)C[C@H](N2CCOc3cc(C#N)cc(-c4ccnc5cc(Cn6ncc(C(C)(C)C)cc6=O)sc45)c32)CN1 [Example 136, (S)-5-(2-((4-(tert-butyl)-6-oxopyridazin-1(6H)-yl)methyl)thieno[3,2-b]pyridin-7-yl)-4-(5,5-dimethylpyrrolidin-3-yl)-3,4-dihydro-2H-benzo[b][1,4]oxazine-7-carbonitrile]
10 to 100	O=C1CCC(=O)N1Cc1cc2nccc(-c3cc(Cl)cc4c3N(C3CC5(CNC5)C3)CCC4)c2s1 [Example 137, 1-[[7-[1-(2-azaspiro[3.3]heptan-6-yl)-6-chloro-3,4-dihydro-2H-quinolin-8-yl]thieno[3,2-b]pyridin-2-yl]methyl]pyrrolidine-2,5-dione]
10 to 100	CN1CC2(CC(N3CCCc4cc(Cl)cc(-c5ccnc6cc(CN7C(=O)CCC7=O)sc56)c43)C2)C1 [Example 138, 1-[[7-[6-chloro-1-(2-methyl-2-azaspiro[3.3]heptan-6-yl)-3,4-dihydro-2H-quinolin-8-yl]thieno[3,2-b]pyridin-2-yl]methyl]pyrrolidine-2,5-dione]
< 10	CN1C[C@@H](N2CCCc3cc(Cl)cc(-c4ccnc5cc(CN6C(=O)CCC6=O)sc45)c32)CC12CCC2 [Example 140, (S)-1-((7-(6-chloro-1-(5-methyl-5-azaspiro[3.4]octan-7-yl)-1,2,3,4-tetrahydroquinolin-8-yl)thieno[3,2-b]pyridin-2-yl)methyl)pyrrolidine-2,5-dione]
< 10	O=C1CCC(=O)N1Cc1cc2nccc(-c3cc(Cl)cc4c3N([C@@H]3CN(CCO)C5(CCC5)C3)CCC4)c2s1 [Example 141, (S)-1-((7-(6-chloro-1-(5-(2-hydroxyethyl)-5-azaspiro[3.4]octan-7-yl)-1,2,3,4-tetrahydroquinolin-8-yl)thieno[3,2-b]pyridin-2-yl)methyl)pyrrolidine-2,5-dione]
< 10	O=C1CCC(=O)N1Cc1cc2nccc(-c3cc(Cl)cc4c3N([C@@H]3CN(CCF)C5(CCC5)C3)CCC4)c2s1 [Example 142, (S)-1-((7-(6-chloro-1-(5-(2-fluoroethyl)-5-azaspiro[3.4]octan-7-yl)-1,2,3,4-tetrahydroquinolin-8-yl)thieno[3,2-b]pyridin-2-yl)methyl)pyrrolidine-2,5-dione]
